Laboratory results: PubChem BioAssay AID200 (DTP/NCI, 2004)
“And” between values parts separate entries of the source, which are not always exact repeats. Equal entries are not always repeated. Toxic doses and inconclusive results are not listed. Where a SMILES comes first, the peptide text is derived from it.

System: B6C3F1 mice, B16 melanoma ip, median survival T/C
Test: NCI In Vivo Anticancer Drug Screen. Data for tumor model B16 Melanoma (intraperitoneal) in B6C3F1 mice
Settings: endpoint: median survival time, higher = longer survival
Procedure, shortened: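 Tumor-bearing mice received test compound; a separate group got vehicle only. Survival was then compared, with results reported as treated over control.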

[1] = dose: 1.56 mg/kg/injection, schedule: Q01DX009 (ip), vehicle: saline with Tween-80
[2] = dose: 3.12 mg/kg/injection, schedule: Q01DX009 (ip), vehicle: saline with Tween-80
[3] = dose: 6.25 mg/kg/injection, schedule: Q01DX009 (ip), vehicle: saline with Tween-80
[4] = dose: 12.5 mg/kg/injection, schedule: Q01DX009 (ip), vehicle: saline with Tween-80
[5] = dose: 25.0 mg/kg/injection, schedule: Q01DX009 (ip), vehicle: saline with Tween-80
[6] = dose: 12.5 mg/kg/injection, schedule: Q01DX009 (ip), vehicle: saline
[7] = dose: 25.0 mg/kg/injection, schedule: Q01DX009 (ip), vehicle: saline
[8] = dose: 50.0 mg/kg/injection, schedule: Q01DX009 (ip), vehicle: saline with Tween-80
[9] = dose: 50.0 mg/kg/injection, schedule: Q01DX009 (ip), vehicle: saline
[10] = dose: 100.0 mg/kg/injection, schedule: Q01DX009 (ip), vehicle: saline with Tween-80
[11] = dose: 100.0 mg/kg/injection, schedule: Q01DX009 (ip), vehicle: saline
[12] = dose: 200.0 mg/kg/injection, schedule: Q01DX009 (ip), vehicle: saline with Tween-80
[13] = dose: 3.13 mg/kg/injection, schedule: Q01DX009 (ip), vehicle: saline with Tween-80
[14] = dose: 50.0 mg/kg/injection, schedule: Q01DX009 (ip), vehicle: Klucel (hydroxypropylcellulose) (HPC)
[15] = dose: 6.25 mg/kg/injection, schedule: Q01DX009 (ip), vehicle: water
[16] = dose: 12.5 mg/kg/injection, schedule: Q01DX009 (ip), vehicle: water
[17] = dose: 25.0 mg/kg/injection, schedule: Q01DX009 (ip), vehicle: water
[18] = dose: 0.25 mg/kg/injection, schedule: Q01DX009 (ip), vehicle: Klucel (hydroxypropylcellulose) (HPC)
[19] = dose: 0.5 mg/kg/injection, schedule: Q01DX009 (ip), vehicle: Klucel (hydroxypropylcellulose) (HPC)
[20] = dose: 1.0 mg/kg/injection, schedule: Q01DX009 (ip), vehicle: Klucel (hydroxypropylcellulose) (HPC)

## CCCCCCCC(=O)[O][Hg][CH2]C1COC([CH2][Hg][O]C(=O)CCCCCCC)CO1 (stereo not given)
[1]
  T/C: 95 % of control and 102 % of control
[2]
  T/C: 96 % of control and 103 % of control
[3]
  T/C: 94 % of control and 101 % of control
[4]
  T/C: 93 % of control and 97 % of control
[5]
  T/C: 91 % of control

## Cc1nc2ccccc2c(C(=O)NO)[n+]1[O-]
dose: 3.13 micrograms/kg/injection, schedule: Q01DX009 (ip), vehicle: other
  T/C: 100 % of control
dose: 6.25 micrograms/kg/injection, schedule: Q01DX009 (ip), vehicle: other
  T/C: 104 % of control
dose: 12.5 micrograms/kg/injection, schedule: Q01DX009 (ip), vehicle: other
  T/C: 122 % of control
dose: 25.0 micrograms/kg/injection, schedule: Q01DX009 (ip), vehicle: other
  T/C: 110 % of control

## Nc1nc(-c2ccc(Cl)c([N+](=O)[O-])c2)c(Br)c(=O)[nH]1
dose: 18.25 mg/kg/injection, schedule: Q01DX009 (ip), vehicle: saline with Tween-80
  T/C: 121 % of control
dose: 36.5 mg/kg/injection, schedule: Q01DX009 (ip), vehicle: saline with Tween-80
  T/C: 118 % of control
dose: 73.0 mg/kg/injection, schedule: Q01DX009 (ip), vehicle: saline with Tween-80
  T/C: 100 % of control
dose: 146.0 mg/kg/injection, schedule: Q01DX009 (ip), vehicle: saline with Tween-80
  T/C: 100 % of control

## Clc1cc(Cl)c(C[N+]23CN4CN(CN(C4)C2)C3)cc1Cl
[4]
  T/C: 101 % of control
[6]
  T/C: 102 % of control
[5]
  T/C: 105 % of control
[7]
  T/C: 100 % of control
[8]
  T/C: 102 % of control
[9]
  T/C: 106 % of control
[10]
  T/C: 107 % of control
[11]
  T/C: 111 % of control

## COc1ccc(C(C)c2cc3c(cc2OC)OCO3)cc1 (stereo not given)
[5]
  T/C: 99 % of control
[8]
  T/C: 99 % of control
[10]
  T/C: 100 % of control
[12]
  T/C: 104 % of control

## NC(N)=NC(N)=Nc1ccc(-c2ccc(N=C(N)N=C(N)N)cc2)cc1
dose: 0.78 mg/kg/injection, schedule: Q01DX009 (ip), vehicle: saline with Tween-80
  T/C: 98 % of control
[1]
  T/C: 107 % of control
[13]
  T/C: 90 % of control
[3]
  T/C: 106 % of control
[4]
  T/C: 93 % of control

## CCCC1C/C=C/C=C/C=C/C=C/C(OC2OC(C)C(O)C(N)C2O)CC(O)C(C(=O)O)C(O)CC(=O)CC(O)CCCC(=O)CC(O)C(CC)C(=O)O1 (stereo not given)
dose: 2.5 mg/kg/injection, schedule: Q01DX009 (ip), vehicle: Klucel (hydroxypropylcellulose) (HPC)
  T/C: 114 % of control
dose: 5.0 mg/kg/injection, schedule: Q01DX009 (ip), vehicle: Klucel (hydroxypropylcellulose) (HPC)
  T/C: 106 % of control
dose: 10.0 mg/kg/injection, schedule: Q01DX009 (ip), vehicle: Klucel (hydroxypropylcellulose) (HPC)
  T/C: 104 % of control
dose: 20.0 mg/kg/injection, schedule: Q01DX009 (ip), vehicle: Klucel (hydroxypropylcellulose) (HPC)
  T/C: 89 % of control

## O=[N+]([O-])c1ccc(Sc2ccncn2)c([N+](=O)[O-])c1
[4]
  T/C: 92 % of control
[5]
  T/C: 105 % of control
[8]
  T/C: 92 % of control
[10]
  T/C: 101 % of control

## NCC(=O)NC(Cc1ccc(O)cc1)C(=O)NCC(=O)O (stereo not given) (HELM PEPTIDE1{G.[O=C(C(Cc1ccc(O)cc1)N[*:1])[*:2]].G}$$$$V2.0)
[14]
  T/C: 96 % of control
dose: 100.0 mg/kg/injection, schedule: Q01DX009 (ip), vehicle: Klucel (hydroxypropylcellulose) (HPC)
  T/C: 98 % of control
dose: 200.0 mg/kg/injection, schedule: Q01DX009 (ip), vehicle: Klucel (hydroxypropylcellulose) (HPC)
  T/C: 106 % of control

## CCN(CC)CCNc1ccc(C)c2sc3ccc(O)cc3c(=O)c12
[8]
  T/C: 150 % of control
[10]
  T/C: 191 % of control

## Cn1cc(NC(=O)c2cc(NC(=O)c3cc(NC=O)cn3C)cn2C)cc1C(=O)NCCC(=N)N
[15]
  T/C: 99 % of control and 101 % of control and 105 % of control

## COC(=O)NC1C(C)OC(OC2C/C=C(/C)C3C=CC4C(OC5CC(OC6CC(OC7CC(O)C(O)C(C)O7)C(OC7CC(O)C(OC)C(C)O7)C(C)O6)C(O)C(C)O5)C(C)CC(C)C4C3(C)/C(O)=C3\C(=O)OC4(CC(C)C(CO)=CC4/C=C\2C)C3=O)CC1(C)[N+](=O)[O-] (stereo not given)
[15]
  T/C: 117 % of control and 100 % of control
[16]
  T/C: 108 % of control and 122 % of control
dose: 12.5 mg/kg/injection, schedule: Q01DX009 (sc), vehicle: water
  T/C: 92 % of control
[17]
  T/C: 116 % of control
dose: 25.0 mg/kg/injection, schedule: Q01DX009 (sc), vehicle: water
  T/C: 91 % of control
dose: 50.0 mg/kg/injection, schedule: Q01DX009 (sc), vehicle: water
  T/C: 113 % of control
dose: 100.0 mg/kg/injection, schedule: Q01DX009 (sc), vehicle: water
  T/C: 89 % of control
dose: 200.0 mg/kg/injection, schedule: Q01DX009 (sc), vehicle: water
  T/C: 98 % of control

## Cc1ccc(C(=O)OC(C(=O)O)C(OC(=O)c2ccc(C)cc2)C(=O)O)cc1 (stereo not given) (tested in a mixture with another compound)
dose: 6.25 mg/kg/injection, schedule: Q01DX009 (ip), vehicle: other
  T/C: 93 % of control
dose: 12.5 mg/kg/injection, schedule: Q01DX009 (ip), vehicle: other
  T/C: 91 % of control
dose: 25.0 mg/kg/injection, schedule: Q01DX009 (ip), vehicle: other
  T/C: 111 % of control

## O=C(Nc1cccc2c(OC(=O)C(Cl)Cl)c(N=Nc3ccc(S(=O)(=O)Nc4nccs4)cc3)cc(N=Nc3ccc(S(=O)(=O)Nc4nccs4)cc3)c12)C(Cl)Cl (tested in a mixture with another compound)
[2]
  T/C: 104 % of control
[13]
  T/C: 94 % of control
[3]
  T/C: 115 % of control and 119 % of control and 87 % of control
[4]
  T/C: 114 % of control and 100 % of control and 104 % of control
[5]
  T/C: 109 % of control
[8]
  T/C: 108 % of control
[10]
  T/C: 95 % of control

## O=S(CCCl)CCCl
dose: 6.25 mg/kg/injection, schedule: Q01DX009 (ip), vehicle: Klucel (hydroxypropylcellulose) (HPC)
  T/C: 96 % of control and 107 % of control
dose: 12.5 mg/kg/injection, schedule: Q01DX009 (ip), vehicle: Klucel (hydroxypropylcellulose) (HPC)
  T/C: 98 % of control and 101 % of control
dose: 25.0 mg/kg/injection, schedule: Q01DX009 (ip), vehicle: Klucel (hydroxypropylcellulose) (HPC)
  T/C: 98 % of control and 107 % of control
[14]
  T/C: 89 % of control and 96 % of control

## O=C1c2ccccc2C(=O)c2c(NCCNCCO)ccc(O)c21
dose: 2.5 mg/kg/injection, schedule: Q01DX009 (ip), vehicle: suspension in saline
  T/C: 118 % of control
dose: 20.0 mg/kg/injection, schedule: Q01DX009 (ip), vehicle: suspension in saline
  T/C: 153 % of control
dose: 40.0 mg/kg/injection, schedule: Q01DX009 (ip), vehicle: suspension in saline
  T/C: 184 % of control
dose: 80.0 mg/kg/injection, schedule: Q01DX009 (ip), vehicle: suspension in saline
  T/C: 190 % of control

## O=C1CN(CCN2CC(=O)N(CN3CCOCC3)C(=O)C2)CC(=O)N1CN1CCOCC1
[16]
  T/C: 107 % of control
[17]
  T/C: 114 % of control and 118 % of control (2×)
dose: 50.0 mg/kg/injection, schedule: Q01DX009 (ip), vehicle: water
  T/C: 150 % of control and 154 % of control

## CC(=O)OC1C2CCC3C(C)(O)C4CC(O)C(C)(C)C4(O)C(O)CC13CC2(C)O (stereo not given)
[18]
  T/C: 111 % of control
[19]
  T/C: 100 % of control
[20]
  T/C: 121 % of control

## O=C1C=C2C(=CCOC2O)O1 (stereo not given)
[18]
  T/C: 95 % of control and 97 % of control
[19]
  T/C: 94 % of control and 98 % of control
[20]
  T/C: 99 % of control and 100 % of control
dose: 2.0 mg/kg/injection, schedule: Q01DX009 (ip), vehicle: Klucel (hydroxypropylcellulose) (HPC)
  T/C: 97 % of control
dose: 4.0 mg/kg/injection, schedule: Q01DX009 (ip), vehicle: Klucel (hydroxypropylcellulose) (HPC)
  T/C: 91 % of control

## COCC(CN1CCN(c2ccccc2OC)CC1)OC (stereo not given)
[6]
  T/C: 100 % of control
[7]
  T/C: 99 % of control
[9]
  T/C: 105 % of control

## CN(C)CCc1ccc(O)cc1
[11]
  T/C: 89 % of control
dose: 200.0 mg/kg/injection, schedule: Q01DX009 (ip), vehicle: saline
  T/C: 92 % of control

## [Cl][Hg][CH]1CCC2OC1CC[CH]2[Hg][Cl] (stereo not given)
[1]
  T/C: 97 % of control
[2]
  T/C: 97 % of control
[3]
  T/C: 101 % of control

## CC(C)(C)OC(=O)NCC(=O)ON1C(=O)CCC1=O
[8]
  T/C: 100 % of control
[10]
  T/C: 91 % of control

## Cc1cc2nc(Cc3nc4cc(C)c(C)cc4[nH]3)[nH]c2cc1C
[8]
  T/C: 94 % of control
[10]
  T/C: 93 % of control
[12]
  T/C: 88 % of control

## COc1ccc(/C(C#N)=C2\OC(=O)c3ccccc32)cc1OC
[2]
  T/C: 95 % of control
[3]
  T/C: 93 % of control
[4]
  T/C: 107 % of control
[5]
  T/C: 88 % of control
[8]
  T/C: 91 % of control
[12]
  T/C: 88 % of control
